# Laboratory results published in ChEMBL document CHEMBL1148863, “Discovering new inhibitors of bacterial glucosamine-6P synthase (GlmS) by docking simulations” (Bioorg Med Chem Lett, 2007).
# What was measured:
# [1] = Inhibition of bacterial glucosamine-6-phosphate synthase at 100 uM by colorimetric morgan-elson assay
# [2] = Inhibition of bacterial glucosamine-6-phosphate synthase by colorimetric morgan-elson assay
smiles,measurement,setting,value
COC(=O)c1sc(N2C(=O)C(O)=C(C(=O)c3ccc(Cl)cc3)C2c2ccccc2F)nc1C (stereo not drawn),inhibition,[1],0%
CCOC(=O)c1sc(N2C(=O)C(O)=C(C(=O)c3ccc(F)cc3)C2c2cccc(Br)c2)nc1C (stereo not drawn),inhibition,[1],70%
same,IC50,[2],70 µM
COc1cc2ccnc3c2c(c1OC)NC=C3 [AAPTAMINE],IC50,[2],120 µM
O=C(O)CC(Sc1ccc(C(=O)O)cc1)C(=O)O (stereo not drawn),inhibition,[1],0%
O=C(C1=C(O)C(=O)N(Cc2cccnc2)C1c1cccc(Oc2ccccc2)c1)c1ccco1 (stereo not drawn),inhibition,[1],20%
COc1ccccc1C1Oc2ccccc2C2=C1C(c1ccccc1OC)n1nc(C)nc1N2 (stereo not drawn),inhibition,[1],70%
same,IC50,[2],70 µM
COc1ccc(-c2sc(C(=O)O)cc2CC(=O)O)cc1,inhibition,[1],0%
COC(=O)c1sc(N2C(=O)C(O)=C(C(=O)c3ccccc3)C2c2ccc(C)cc2)nc1C (stereo not drawn),inhibition,[1],0%
N[C@@H](CO)[C@@H](O)[C@H](O)[C@H](O)COP(=O)(O)O,inhibition,[1],85%
same,IC50,[2],56 µM
O=C(O)Cc1csc(NC(=O)CSc2ccccn2)n1,inhibition,[1],0%
Nc1nc[nH]n1 [AMITROLE],IC50,[2],100 µM
O=S(=O)(NC(NS(=O)(=O)c1ccccc1)c1ccc(Br)cc1)c1ccccc1,inhibition,[1],0%
CCOC(=O)c1sc(N2C(=O)C(O)=C(C(=O)c3ccc(F)cc3)C2c2ccc(OC)cc2)nc1C (stereo not drawn),inhibition,[1],70%
same,IC50,[2],70 µM
O=C(O)C[C@@H](NS(=O)(=O)c1ccccc1)C(=O)O,inhibition,[1],0%
